Experimental data as given in PMC4581228, “Membrane Affinity of Platensimycin and Its Dialkylamine Analogs” (International Journal of Molecular Sciences, 2015).

Key:
S. aureus, MRSA = system: S. aureus, MRSA; design: method as in PMID 17707686; conditions: Gram-positive; cited from earlier work
E. coli = system: E. coli; design: method as in PMID 17707686; conditions: Gram-negative; only when co-administered with Phe-Arg-β-naphthylamide dihydrochloride (PAβND), efflux pump inhibitor; cited from earlier work
E. faecium, VRE = system: E. faecium, VRE; design: method as in PMID 17707686; conditions: Gram-positive; cited from earlier work
Bacillus subtilis [1] = conditions: cited from earlier work; for Activity against B. subtilis: Gram-positive; for MIC for B. subtilis: cultures of Bacillus subtilis, ref 22 (table title)
[2] = Langmuir monolayer pressure-area isotherms; assay type: physicochemical, E. coli; conditions: for log Klip @ 20 mN/m, Measured: E. coli polar lipid monolayer, pH 7.4, ~20 °C; for Effective Molec. Area (ad): area taken by the drug in the monolayer, from slopes of log(ΔArea) vs. surface pressure; for log Klip @ 35 mN/m, Corrected: corrected to the monolayer-bilayer equivalence pressure 35 mN/m (Equation 6)
Description: All Langmuir monolayer experiments were done with a two-barrier rectangular 22 cm × 6 cm trough (MicroTrough XS, Kibron Inc., Helsinki, Finland) placed in an Airclean hood. A Dyneprobe metal alloy needle was used as the Wilhelmy plate. Lipids used were E. coli total polar lipid extract from Avanti Polar Lipids (Alabaster, AL, USA) dissolved in chloroform or hexane to a final concentration of 0.2 mg/mL. Distribution of lipids onto the subphase was accomplished using a gastight 50 µL Hamilton® syringe (Hamilton, Reno, NV, USA). The subphase buffer was identical to the tensiometry buffer. Pressure—Area isotherms (monolayers) were performed at room temperature (~20 °C) from 114 to 18 cm^2 at a barrier rate of 20 mm/min. For each analog, isotherms were measured at least four times at every concentration.
In Langmuir experiments, the value of the bulk-monolayer (Klip) partitioning coefficient was determined in a similar way, using the deviations of surface pressure of monolayers measured at constant area. […] However, at this compression, strongly intercalating substances produced pressure shifts beyond the collapse pressure of 45–47 mN/m, which forced us to score Δπ from surface pressure of 20 mN/m achieved at ~80 Å^2/molecule. Klip1 obtained in this expanded state was than corrected for the lateral pressure increase from π1 = 20 to π2 = 35 mN/m, which has the same form as Equation (7) in [5]: (6) ln(Klip2)=ln(Klip1)−(π2−π1)adNA/RT
Here ad is the area taken by the drug in the plane of the monolayer.
To estimate ad we assumed equilibrium between the drug in the subphase and in the monolayer and equated its chemical potentials in the two phases: (7) μ0+RTln(χd)=μ0σ+RTln(χdσ)+π⋅adNA
The right part with indexes σ represents the surface parameters of standard chemical potential µ0σ and drug mole fraction χdσ , whereas the left part represents the bulk parameters. Defining lnKlip = µ0σ −µ0 one can rearrange this equation as (8) lnKlip−lnχdσ−lnχd=π⋅adNA/RT
Differentiating with respect to π gives (9) −RTd(lnχdσ)/NAdπ=ad
Thus the molecular area of the drug defines the slope of χdσ , with which the drug re-partitions back to the subphase as surface pressure π increases. We further assume that at a given surface pressure, insertion of nd drug molecules into the film comprised of nL lipid molecules with initial area A0, should dilate the film by ΔA. (10) nd/nL=ΔA/A0⋅aL/ad
The parameter aL, the area per lipid at that particular pressure, is taken from the control pressure-area isotherm with no drug. The mole fraction of the drug in the monolayer χdσ = nd/(nd + nL) is related to the extent of monolayer dilation ΔA (11) ΔA=ad⋅nd=adnL⋅χdσ/1−χdσ
On the assumption that χdσ is small, ΔA is proportional to the mole fraction of the drug. In Equation (4) we substitute and obtain (12) −kTd(lnΔA)/dπ=ad
Thus, the molecular area of the drug can be determined from the logarithmic slope of ΔA on surface pressure. Once we know ad, we can introduce a correction to Klip due to lateral pressure change ([…]). In addition, we can estimate the molar ratio of drug-to-lipid, the mole fraction χdσ and the partitioning constant. From the extent of monolayer dilation at a constant surface pressure (chosen to be 20 mN/m), the apparent bulk-monolayer partitioning coefficient Klip could be independently estimated as Klip=χdσ/χd , where […] = Cd/55 represents the drug mole fraction in the subphase.

[3] = Tensiometry at the air-water interface (Wilhelmy method); assay type: physicochemical; conditions: for log KAW (tens.): air-water partitioning coefficient, tensiometry, buffer pH 7.4; for Concentration at which changes of surface tension were detected: detected only at this concentration
Description: Surface tensions of subphase solutions with varying concentrations of platensimycin analogs were quantified using the Wilhelmy method with a piece of filter paper (Whatman, No. 1, 10.5 mm wide and 0.25 mm thick) used as a probe. The subphase buffer consisted of 200 mM KCl, 10 mM MgCl2, 5 mM CaCl2, 5 mM HEPES (Sigma-Aldrich, St. Louis, MO, USA) titrated to a pH of 7.4 with KOH. The pressure sensor (model 601, NIMA, Coventry, UK) was calibrated using a 100 mg weight. Water surface tension was measured to be […], after calibration. […] The surface activity and values for molecular area at the surface of the air-water interface (As), the partition coefficient at the air-water interface of the surface active molecule (KAW), and the membrane partitioning coefficient (Kmem), were determined as described previously.
The analysis of interfacial adsorption data was performed in the general framework of the Gibbs equation (1) dπ=∑Γidμi where dπ represents a small change in surface pressure, Γi is surface excess of component i and dμi is the small change of chemical potential of that component in the aqueous phase. For one adsorbing component, in an ideal case the Gibbs isotherm takes the form (2) dπ=RTΓd ln C where surface excess is defined as the surface density of molecules Γ = 1/(NAaS), NA is Avogadro’s number and aS is the area requirement for the molecule at the surface. The adsorbing substance gradually saturates the surface; the process that can be approximated by a Langmuir isotherm: (3) Γ=Γ∞lnKAW⋅C/1+KAW⋅C
Thus, beyond a certain bulk concentration, Γ approaches a constant value of Γ∞ and in that range of concentrations a linear relationship holds: (4) Γ∞=(1/RT)dπ/d ln C
To evaluate the partition coefficient for an air-water interface (KAW) and monolayers (Klip), the integral form of this equation attributed to Szyszkowski and previously applied to monolayers by Seelig and coworkers was used: (5) π=RTΓ∞ln(KAWC+1)
As was shown in Suomolainen 2004 [5], the x-intercept of the fitting line of experimental π-lnC curve would approximate the inverse partitioning coefficient 1/KAW, measured at the air-water interface.

[4] = system: A98S MscS in the cytoplasmic membrane of E. coli; assay: Patch-clamp of A98S MscS in excised spheroplast patches (activation midpoint shift); conditions: for log Kmem (patch-clamp): x-intercept of midpoint shift (∆p0.5) vs. concentration, native E. coli membrane, cytoplasmic side; for Redistribution / return of activation midpoint: within the observation time, Supplementary Figure S4
Description: A pB10b vector was used to house and express the mscS gene in the triple-knockout E. coli strain MJF465 (mscS^−, mscL^−, mscK^−). The A98S MscS mutant, generated and partially characterized previously, was chosen for its higher sensitivity to inner leaflet drug partitioning.
Spheroplasts were generated as described previously. The experimental bath solution contained 400 mM sucrose, 200 mM KCl, 50 mM MgCl2, 5 mM CaCl2, and 5 mM HEPES and was titrated to pH 7.4 with KOH. Membrane patches were obtained on borosilicate glass pipettes and recorded at 30 mV pipette voltage set by a microelectrode amplifier. The midpoint of activation for channels in each patch was determined at two-minute intervals for the duration of the experiment via a 1 s ramp of saturating pressure. Analogs of platensimycin were pre-diluted in either ethanol or bath solution and perfused into the bath to achieve the desired concentration; control injections of equivalent volumes of ethanol had no effect on the midpoint of activation. Negative pressure (suction) was applied with the HSPC-1 high speed pressure clamp apparatus from ALA Scientific. Programming of the pressure protocols and data analysis was performed with the PClamp10 suite (Axon Instr., Foster City, CA, USA). The principle of lateral pressure measurements using two experimental systems, lipid monolayers and patch-clamp, is illustrated in Figure 1.
Similarly, the bulk-membrane partitioning coefficient (Kmem) was estimated from the values of relative increase in MscS activation pressure midpoint (p0.5) measured in patch-clamp experiments at different concentrations of intercalating agents by linear fit of Δp0.5 as a function of log(Cd).

Bacillus subtilis [5] = assay: Minimal inhibitory concentration with cultures of Bacillus subtilis; assay type: cell-based; conditions: in experiments; organism not given
Excerpt: Principally, the efficacy of a drug depends on permeability (first selection), the degree of inhibition of the biological target, rates of drug efflux, drug breakdown, off target binding, and sequestration. In the case of platensimycin, the biological target is FabF. […] Details of docked conformations are presented in the Supplementary Figure S2A,B. Platensimycin and QD-11 show the same estimated binding affinity to FabF (C163Q) (PDB ID: 2GFX) and both are potent antibiotics. […] More specifically, platensimycin and myrtemycin were active against Gram-positive bacteria (S. aureus, MRSA; E. faecium, VRE and B. subtilis) and also Gram-negative bacteria, E. coli (but only when co-adminsitered with Phe-Arg-β-naphthylamide dihydrochloride, PAβND, which is a bacterial efflux pump inhibitor) as described in [18]. For the purpose of comparison with the computational docking predictions, here we present data for B. subtilis.
The bottom row in Table 1 presents minimal inhibitory concentrations (MIC) for all of the substances assayed with gram-positive and gram-negative bacteria. […] Despite the fact that the heterocyclic G271 partitioned into the membrane very well, and can be docked well into FabF, it had virtually no antimicrobial activity.

Row | SMILES | Activity against S. aureus, MRSA (S. aureus, MRSA) | Activity against E. coli (E. coli) | Activity against E. faecium, VRE (E. faecium, VRE) | Activity against B. subtilis (Bacillus subtilis [1]) | MIC for B. subtilis (Bacillus subtilis [1]) [µg/mL] | log Klip @ 20 mN/m, Measured [2] | Effective Molec. Area (ad) [2] [Å^2] | Effective Molec. Area (ad) ([2]; listed as platensimycin) | log Klip @ 35 mN/m, Corrected [2] | log KAW (tens.) [3] | Effect on surface tension ([3]; up to 30 µM) | log Kmem (patch-clamp) [4] | Concentration at which changes of surface tension were detected [3] | Redistribution / return of activation midpoint [4] | Biological / antibiotic activity (Bacillus subtilis [5]) | Concentration in the subphase at which presence is detectable on isotherms [2] | Initial unilateral insertion into the membrane relative to flipping across the membrane ([4]; sequential additions)
1 | CC12C[C@@]34C=CC(=O)[C@@](C)(CCC(=O)Nc5c(O)ccc(C(=O)O)c5O)C3[C@H](CC1C4)O2 (stereo partly drawn) [PL, platensimycin] | active | active | active | active | 2 | 6.6 | 34 | 31–34 Å^2 | 6.1 | 4.6 | no visible effect | 5.0 | – | – | – | – | –
2 | O=C(CCN(Cc1cccnc1)Cc1cccnc1)Nc1c(O)ccc(C(=O)O)c1O [G258] | – | – | – | – | >512 | 5.9 | 18 | – | 5.6 | 4.2 | – | – | 10^−4 M | relatively fast | essentially no biological activity | – | –
3 | CC1(C)C2CC=C(CN(CCC(=O)Nc3c(O)ccc(C(=O)O)c3O)CC3=CCC4CC3C4(C)C)C1C2 [QD-11, myrtemycin] | active | active | active | active | 4 | 6.7 | 31 | – | 6.2 | 6.1 | – | 5.7 | – | – | – | 10^−7 M | five to six times faster
4 | CC1(C)C2CC=C(CNCCC(=O)Nc3c(O)ccc(C(=O)O)c3O)C1C2 (stereo not drawn) [QL-03] | – | – | – | – | >256 | 5.6 | 28 | – | 5.2 | 5.0 | – | 6.1 | – | – | – | – | –
5 | O=C(CCN(Cc1ccc2c(c1)OCO2)Cc1ccc2c(c1)OCO2)Nc1c(O)ccc(C(=O)O)c1O [G271] | – | – | – | – | >512 | 6.1 | 18 | – | 5.8 | 4.5 | – | 6.1 | – | did not return back | no antibiotic activity | – | –
6 | Cn1ccnc1CN(CCC(=O)Nc1c(O)ccc(C(=O)O)c1O)Cc1nccn1C [G262] | – | – | – | – | >512 | 5.9 | 17 | – | 5.6 | 4.2 | – | – | 10^−4 M | did not return back | essentially no biological activity | – | –
7 | CCCCN(CCCC)CCC(=O)Nc1c(O)ccc(C(=O)O)c1O [QD-06] | – | – | – | – | 128 | 5.0 | 30 | – | 4.5 | 4.1 | – | 5.5 | – | – | – | – | –
